Here are results for 43 molecules from the Deep4Chem optical property database.

A short description of the data set: solvent given as SMILES.

`CCc1c(C)[nH]c(C2=[N+]3C(=C(C)c4c(C)c(CC)c(C)n4[B-]3(F)F)c3ccccc32)c1C`: the emission maximum by setting is: (in C1CCOC1) 656 nm; (in CC#N) 652 nm; (in CCCCCC) 636 nm; (in CO) 650 nm; (in Cc1ccccc1) 646 nm; (in ClCCl) 645 nm.
Consider `C=CCNS(=O)(=O)c1ccc2c(c1)C(=O)/C(=C1\Sc3ccc(S(=O)(=O)NCC=C)cc3C1=O)S2`, for which the emission maximum was 604 nm (in CN(C)C=O) and 625 nm (in CS(C)=O).
`Cc1cc(C)cc(C)c1`: the emission maximum (in C1CCCCC1) was 294.72 nm.
Take `CCOC(=O)COc1ccc(/C=C/C2=C3c4ccccc4C(c4[nH]c(C)cc4C)=[N+]3[B-](F)(F)n3c(/C=C/c4ccc(OCC(=O)OCC)cc4)cc(C)c32)cc1`: the emission maximum by setting is: (in C1CCOC1) 730 nm; (in CC#N) 727 nm; (in CCCCCC) 731 nm; (in CO) 726 nm; (in Cc1ccccc1) 735 nm; (in ClCCl) 733 nm.
Turning to `CCN1c2ccc(/C=N/Nc3ccccn3)cc2Sc2cc(-c3cccc4ccccc34)ccc21`, the emission maximum is, setting by setting: (in C1CCOC1) 487 nm; (in CS(C)=O) 498 nm; (in Cc1ccccc1) 482 nm; (in ClCCl) 491 nm.
For the setting “in C1CCOC1”, `CC(C)(C)c1ccc(-c2nc(-c3ccc(-n4c5ccccc5c5c6oc7ccccc7c6ccc54)cc3)nc(-c3ccc(C(C)(C)C)cc3)n2)cc1` came in with an emission maximum of 415.2 nm.
As for `CC1(C)C(/C=C/C2=C(Oc3ccc(CCN=C=S)cc3I)C(=C/C=C3/N(CCCS(=O)(=O)[O-])c4ccccc4C3(C)C)/CCC2)=[N+](CCCS(=O)(=O)[O-])c2ccccc21`, for the setting “in CO”, the emission maximum amounted to 796 nm.
On to `COC(=O)c1ccc(/C=C2\C=C(c3ccccc3)OC2=O)cc1`, for which, for the setting “in C1COCCO1”, the emission maximum is recorded as 495 nm.
As to `CCCCOC(=O)/C(C#N)=C1\C(=CC2=[N+](C)c3ccccc3C2(C)C)C([O-])=C1C=C1N(C)c2ccccc2C1(C)C`, the emission maximum (in ClC(Cl)Cl) came out at 708 nm.
The molecule `CCC1=C(CC)c2cccc3c2c(cc2nc4ccccc4nc23)O1` had an emission maximum (in ClCCl) of 563 nm.
The molecule `COc1ccc2cc(-c3ccc([N+](=O)[O-])cc3)ccc2c1` yielded an emission maximum (in C1CCOC1) of 534 nm, an emission maximum (in CC#N) of 647 nm, an emission maximum (in ClC(Cl)Cl) of 573 nm and an emission maximum (in ClCCl) of 591 nm.
The molecule `c1ccc2c(c1)c1ccccc1n2-c1cc(-c2nc3ccccn3n2)cc(-n2c3ccccc3c3ccccc32)c1` had an emission maximum (in Cc1ccccc1) of 373 nm.
With `CC1=[N+]2C(=C(NC(C)c3ccccc3)c3ccc(C)n3[B-]2(F)F)C=C1c1cc2n(c1)[B-](F)(F)[N+]1=CC=CC1=C2c1c(C)cc(C)cc1C` (stereo not drawn), the emission maximum came out at 640 nm (in C1CCCCC1) and 700 nm (in CCOC(C)=O).
For the molecule `CC(C)[Si](C#Cc1c2ccc(C(C)(C)C)cc2c(C#C[Si](C(C)C)(C(C)C)C(C)C)c2ccc(C(C)(C)C)cc12)(C(C)C)C(C)C`, the emission maximum (in Cc1ccccc1) was 461 nm.
Take `N#Cc1ccc(N(c2ccc(C#N)cc2)c2ccc3c4cccc5c(N(c6ccc(C#N)cc6)c6ccc(C#N)cc6)ccc(c6cccc2c63)c54)cc1`: the emission maximum by setting is: (in C1CCCCC1) 494 nm; (in C1CCOC1) 531 nm; (in CC#N) 535 nm; (in Cc1ccccc1) 513 nm; (in ClCCl) 522 nm.
With `CON(C)C(=O)c1ccc(/C=C/c2ccc(/C=C/c3ccc(C(=O)N(C)OC)cc3)cc2)cc1`, the emission maximum (in c1ccccc1) is 434 nm.
Regarding `c1ccc2c(-c3ccc4sc5ccc(-c6c7ccccc7cc7ccccc67)cc5c4c3)c3ccccc3cc2c1`, the emission maximum reads like this: (in C1CCCCC1) 399.14 nm; (in CC#N) 402.78 nm; (in ClCCl) 408.25 nm.
Where the note is “in ClC(Cl)Cl”, `Cc1cc(C)c(C2=C3C=CC(c4ccc5c(ccc6ccccc65)c4)=[N+]3[B-](F)(F)n3c2ccc3-c2ccc3c(ccc4ccccc43)c2)c(C)c1` came in with an emission maximum of 624 nm.
Consider `COc1ccc(-c2ccc(-c3ccc(C#N)cc3)cc2)cc1`, for which the emission maximum (in C1CCCCC1) stood at 377 nm.
For the molecule `CCCCNc1ccc(NCCCC)c2c1C(=O)c1ccccc1C2=O`, the emission maximum (in C1CCCCC1) is 665 nm; the emission maximum (in C1COCCO1) is given as 672 nm; the emission maximum (in CC(C)=O) is on record as 671 nm; the emission maximum (in CCCCCCCCCCO) turned out to be 668 nm; the emission maximum (in CCCCCCCO) came out at 661 nm; the emission maximum (in CCCCCCO) turned out to be 670 nm. Also, the emission maximum came to 671 nm (in CCCCO); 674 nm (in CCO); 664 nm (in CN(C)C=O); 666 nm (in CO); 678 nm (in CS(C)=O); 675 nm (in ClC(Cl)(Cl)Cl). The emission maximum (in c1ccccc1) amounted to 667 nm.
Turning to `CN(C)c1ccc(-c2cc(-c3ccc4ccccc4c3)nc(-c3ccccc3)n2)cc1`, the emission maximum is, setting by setting: (in C1CCCCC1) 422 nm; (in CS(C)=O) 599 nm; (in ClC(Cl)Cl) 510 nm.
On to `COc1ccc2c(c1)CCC1=C(C#Cc3ccc(Cl)cc3)O[B-](F)(F)[O+]=C12`, for which the emission maximum (in ClCCl) amounted to 472 nm.
With `Cc1cc(C)n2c1C=C1c3ccccc3C(c3c[nH]c4ccccc34)=[N+]1[B-]2(F)F`, the emission maximum runs as follows: (in C1CCOC1) 606 nm; (in CC#N) 602 nm; (in CCCCCC) 598 nm; (in CO) 603 nm; (in Cc1ccccc1) 608 nm; (in ClCCl) 606 nm.
As for `Cc1c(C)c(N2c3ccccc3Oc3ccccc32)c(C)c(C)c1B(c1c(C)c(C)c(N2c3ccccc3Oc3ccccc32)c(C)c1C)c1c(C)c(C)c(N2c3ccccc3Oc3ccccc32)c(C)c1C`, under “in CC(C)(C)c1ccc(-n2c3ccc([Si](c4ccccc4)(c4ccccc4)c4ccccc4)cc3c3cc([Si](c4ccccc4)(c4ccccc4)c4ccccc4)ccc32)cc1”, the emission maximum came to 509 nm.
With `CN(C)c1cccc2c1C(=O)c1ccccc1-2`, the emission maximum was found to be 498 nm (in C1CCCCC1), 534 nm (in CC#N), 541 nm (in CCO) and 520 nm (in c1ccccc1).
In the case of `c1cc2ccc3[se]c4ccc5cccc6c(c1)c2c3c4c56`, the emission maximum (in ClC(Cl)Cl) amounted to 424 nm.
With `CC1(C)CC(=O)c2c(F)c(F)c(F)c(F)c2N1`, the emission maximum (in CC#N) was 449 nm and the emission maximum (in CCO) worked out at 479 nm.
For `COCCC1(CCOC)c2cc(-c3ccc(OC)cc3)ccc2-c2ccc(-c3ccc(OC)cc3)cc21`, the emission maximum (in C1CCCCC1) was determined as 371 nm.
On to `CC1(C)CC(NCc2ccc3ccc4cccc5ccc2c3c45)CC(C)(C)N1[O]`, for which the emission maximum reads like this: (in C1CCCCC1) 375 nm; (in CC#N) 376 nm; (in CO) 375 nm; (in ClC(Cl)Cl) 376 nm.
For the setting “in CO”, `Nc1ccc(C#Cc2ccc3ccc4ccc(C#Cc5ccc(NS(=O)(=O)c6ccc([N+](=O)[O-])cc6[N+](=O)[O-])cc5)c5ccc2c3c45)cc1` displayed an emission maximum of 552 nm.
Take `CCCOc1ccc(/C=C/C=C/C=C/c2ccc([N+](=O)[O-])cc2)cc1`: the emission maximum worked out at 488 nm (in CC1CCCCC1), 747 nm (in CC#N), 546 nm (in Cc1ccccc1) and 699 nm (in ClCCl).
`c1ccc(-c2cc3cc4cccc5c(-c6ccccc6)cc6cc7cccc2c7c3c6c45)cc1`: where the note is “in ClCCl”, the emission maximum was found to be 442 nm.
Turning to `COc1ccc2c(c1)CCc1c-2nc(N)c(C#N)c1-c1ccc(Br)cc1`, the emission maximum reads like this: (in C1CCOC1) 403 nm; (in C1COCCO1) 412 nm; (in CC#N) 408 nm; (in CCCCCC) 392 nm; (in CCO) 419 nm; (in CN(C)C=O) 423 nm. Also, the emission maximum (in CO) stood at 418 nm, the emission maximum (in CS(C)=O) worked out at 427 nm, the emission maximum (in ClC(Cl)Cl) is on record as 415 nm and the emission maximum (in ClCCl) is 411 nm.
Consider `CC(C)[Si](C#Cc1c2ccccc2c(C#C[Si](C(C)C)(C(C)C)C(C)C)c2nc3c(nc12)Cc1ccccc1-3)(C(C)C)C(C)C`, for which, for the setting “in CCCCCC”, the emission maximum is 494 nm.
Consider `Cc1ccc(/C=C/c2ccccc2-[n+]2noc([O-])c2-c2ccccc2)cc1`, for which the emission maximum reads like this: (in C1CCCCC1) 400 nm; (in CC#N) 506 nm.
`COc1ccc(C#Cc2nc(C#Cc3ccc(OC)cc3)c(C#Cc3ccc(OC)cc3)c(C#Cc3ccc(OC)cc3)c2C#Cc2ccc(OC)cc2)cc1` showed an emission maximum (in ClCCl) of 459 nm.
The molecule `CCC1=C(C)C2=C(/C=C/c3ccc([N+](=O)[O-])cc3)c3c(C)c(CC)c(C)n3[B-](F)(F)[N+]2=C1C` yielded an emission maximum (in ClCCl) of 532 nm.
With `CC(=O)O[B-]1(OC(C)=O)OC(/C=C/c2ccc(C)cc2)=CC(/C=C/c2ccc(C)cc2)=[O+]1`, the emission maximum by setting is: (in C1CCOC1) 484 nm; (in CC#N) 493 nm; (in CC(C)=O) 489 nm; (in CS(C)=O) 499 nm; (in Cc1ccccc1) 481 nm; (in ClC(Cl)Cl) 491 nm. Where the note is “in ClCCl”, this molecule came in with an emission maximum of 492 nm.
Under “in ClC(Cl)Cl”, `CC1=CC(C)=[N+]2C1=C(C1=C(C)C3=C(C)c4c(C)cc(C)n4[B-](F)(F)[N+]3=C1C)c1c(C)cc(C)n1[B-]2(F)F` had an emission maximum of 527 nm.
Turning to `[O-][n+]1c(/C=C/c2ccc3ccccc3c2)nc(N2CCOCC2)c2c1CCCC2`, the emission maximum (in ClCCl) came to 546 nm.
For the setting “in ClCCl”, `CC(C)(C)NC(=O)c1ccc2ccc3cccc4c3c2c1c1c2ccccc2c2ccccc2c41` had an emission maximum of 425 nm.
As to `O=S(=O)(c1ccc(N(c2ccccc2)c2ccccc2)cc1)c1ccc(N(c2ccccc2)c2ccccc2)cc1`, the emission maximum is, setting by setting: (in Cc1ccccc1) 402 nm; (in O=P(c1ccccc1)(c1ccccc1)c1ccccc1Oc1ccccc1P(=O)(c1ccccc1)c1ccccc1) 421 nm.
For the molecule `Cc1cc(C)c(B(c2cc(-c3ccccc3)sc2-c2sc(-c3ccccc3)cc2P(=O)(c2ccccc2)c2ccccc2)c2c(C)cc(C)cc2C)c(C)c1`, the emission maximum (in CO) was 558 nm.
